# Measurements reported in paper PMC13395458, “Structural dynamics of IRE1 and its interaction with unfolded peptides” (eLife, 2026).
# Like-named read-outs stand apart in the source and are kept apart here. Ends that are not written are not given here.
# Experiments:
# hIRE1α = conditions: available binding affinities to hIRE1α; fluorescence anisotropy; ref Karagöz et al., 2017; Kettel et al., 2024; cited from earlier work
# Text: page 1: Structural Dynamics of IRE1 and its Interaction with Unfolded Peptides Supplementary File 2 Polypeptide K1/2 [µM] […] References Elif Karag¨oz G, Acosta-Alvear D, Nguyen HT, Lee CP, Chu F, Walter P. An unfolded protein-induced conformational switch activates mammalian IRE1. eLife. 2017;6:e30700. Kettel P, Marosits L, Spinetti E, Rechberger M, Giannini C, Radler P, et al. Disordered regions in the IRE1 ER lumenal domain medi ...
# hIRE1α LD Y161R = target: T1, hIRE1α LD Y161R (Homo sapiens, UniProt O75460, Y161R); assay: Fluorescence anisotropy, binding of labeled MPZ1N-2X to hIRE1α LD Y161R; conditions: 95% confidence interval of KD
# T1 construct: His6 (N, cleaved yes); made in house; host or cells: Escherichia coli BL21DE3* RIPL
# T1 sequence (O75460 24-443 Y161R): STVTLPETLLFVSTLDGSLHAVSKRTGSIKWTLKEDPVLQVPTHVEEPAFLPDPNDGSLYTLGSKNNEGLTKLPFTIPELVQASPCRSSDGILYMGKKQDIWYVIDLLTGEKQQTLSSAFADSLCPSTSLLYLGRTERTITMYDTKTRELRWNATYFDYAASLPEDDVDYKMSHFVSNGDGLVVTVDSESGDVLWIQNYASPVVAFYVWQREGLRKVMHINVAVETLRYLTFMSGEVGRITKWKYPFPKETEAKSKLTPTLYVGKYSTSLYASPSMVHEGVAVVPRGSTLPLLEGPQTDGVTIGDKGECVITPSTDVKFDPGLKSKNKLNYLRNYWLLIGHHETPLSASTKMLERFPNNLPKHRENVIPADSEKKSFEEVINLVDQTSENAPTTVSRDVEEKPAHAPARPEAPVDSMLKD
# Description: (§1) To express hIRE1α LD (24–443) human cDNA sequences were cloned into pET47b(+) to create a coding sequence with N-terminal His6-tag. Mutations of hIRE1α LD were introduced by overlap extension PCR and restriction cloning into pET47b(+). For expression of the proteins, the plasmid of interest was transformed into Escherichia coli strain BL21DE3* RIPL (Agilent Technologies). Cells were grown in Luria Broth until OD600 = 0.6–0.8. Protein expression was induced with 0.6 mM IPTG, and cells were grown in 20°C overnight. For purification, cells after harvesting were resuspended in Lysis Buffer (50 mM HEPES pH 7.2, 400 mM NaCl, 20 mM imidazole, 5% glycerol, 5 mM β -mercaptoethanol) and were lysed in Constans Systems cell disruptor at 25,000 psi. […] Protein concentrations were determined using the extinction coefficient at 280 nm predicted by the Expasy ProtParam tool (http://web.expasy.org/protparam/).
# (§2) For fluorescence anisotropy measurements, the MPZ1-N-2X peptide attached to 5 carboxyfluorescein (5-FAM) at its N-terminus was obtained from GenScript at >95% purity. Binding affinities of hIRE1α LD mutants to FAM-labeled peptides were determined by measuring the change in fluorescence anisotropy on a Tecan CM Spark Micro Plate Reader with excitation at 485 nm and emission at 525 nm with increasing concentrations of hIRE1α LD variants. […]
# hIRE1α LD wild-type = target: T2, hIRE1α LD wild-type (Homo sapiens, UniProt O75460); assay: Fluorescence anisotropy, binding of labeled MPZ1N-2X to hIRE1α LD WT
# T2 construct: His6 (N, cleaved yes); made in house; host or cells: Escherichia coli BL21DE3* RIPL
# T2 sequence (O75460 24-443): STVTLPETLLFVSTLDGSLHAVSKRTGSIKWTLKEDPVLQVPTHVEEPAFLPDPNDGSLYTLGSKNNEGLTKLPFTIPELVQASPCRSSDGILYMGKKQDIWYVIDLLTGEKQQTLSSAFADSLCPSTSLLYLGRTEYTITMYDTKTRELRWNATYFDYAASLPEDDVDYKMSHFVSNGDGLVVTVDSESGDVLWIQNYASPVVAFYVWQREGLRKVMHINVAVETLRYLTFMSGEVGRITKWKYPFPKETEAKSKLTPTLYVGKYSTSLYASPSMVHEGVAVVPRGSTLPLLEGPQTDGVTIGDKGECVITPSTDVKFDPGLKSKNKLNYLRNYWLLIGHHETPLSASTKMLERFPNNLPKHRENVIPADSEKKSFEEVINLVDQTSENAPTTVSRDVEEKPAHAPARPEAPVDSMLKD
# Description: as §1, §2
# hIRE1α LD E102R = target: T3, hIRE1α LD E102R (Homo sapiens, UniProt O75460, E102R); assay: Fluorescence anisotropy, binding of labeled MPZ1N-2X to hIRE1α LD E102R
# T3 construct: His6 (N, cleaved yes); made in house; host or cells: Escherichia coli BL21DE3* RIPL
# T3 sequence (O75460 24-443 E102R): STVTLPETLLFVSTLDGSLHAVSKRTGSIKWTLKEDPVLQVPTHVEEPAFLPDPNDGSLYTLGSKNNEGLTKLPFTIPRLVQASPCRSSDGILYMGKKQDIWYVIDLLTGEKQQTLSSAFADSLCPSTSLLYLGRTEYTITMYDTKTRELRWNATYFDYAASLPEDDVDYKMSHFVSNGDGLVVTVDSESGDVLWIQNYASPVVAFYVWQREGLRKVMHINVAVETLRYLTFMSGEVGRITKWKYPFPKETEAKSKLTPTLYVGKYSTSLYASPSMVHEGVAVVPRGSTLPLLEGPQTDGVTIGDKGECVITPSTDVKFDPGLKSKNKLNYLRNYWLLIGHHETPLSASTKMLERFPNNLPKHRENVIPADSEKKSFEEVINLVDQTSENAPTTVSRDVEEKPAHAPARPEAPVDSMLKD
# Description: as §1, §2
# [1] = target: T4, MPZ1N-2X peptide, 5-FAM labelled (5 carboxyfluorescein (5-FAM) at its N-terminus); assay: fluorescence polarisation; fluorescence anisotropy; 90 nM 5-FAM-labelled peptide with increasing concentrations of hIRE1α LD variants; 25 mM HEPES pH 7.2, 150 mM NaCl, 2 mM DTT, 0.025% Tween 20; 30 min at 25°C; Hill fit, apparent K1/2 (does not reflect the dissociation constant); conditions: both partners purified
# T4 construct: model unfolded peptide derived from Myelin Protein Zero (MPZ); not a plain stretch of the natural protein; source: synthetic peptide; bought: GenScript (>95% purity)
# T4 peptide: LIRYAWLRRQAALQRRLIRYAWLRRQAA
# [2] = 95% confidence interval of KD, read-out: KD 95% confidence interval
Molecule,K1/2 (hIRE1α),K1/2 (apparent) [1] [µM],further results
"LIDYAWLDDQAALQDDLIDYAWLDDQAA [MPZ1N-2X-RD, MPZ1N-2X with all the arginines mutated to aspartic acid]",binding impaired,,
"LIRYAWLRRQAA [MPZ1-N, unfolded peptide derived from Myelin Protein Zero, …]",16 µM,,
LIRYAWLRRQAALQRRLIRYAWLRRQAA [MPZ1N-2X],,,"Kd (hIRE1α LD Y161R): 4.3 to 7.1 µM; Kd (hIRE1α LD wild-type; [2]): 1.81 to 2.53 µM; Kd (hIRE1α LD wild-type; fluorescence anisotropy, 5-FAM-labeled peptide 90 nM, pH 7.2, 30 min, 25°C, R2 0.9918, read-out: KD): 2.14 µM; Kd (hIRE1α LD E102R; [2]): 5.84 to 6.96 µM; Kd (hIRE1α LD E102R; fluorescence anisotropy, 5-FAM-labeled peptide 90 nM, pH 7.2, 30 min, 25°C, R2 0.9992, read-out: KD): 6.35 µM"
"LQRRISAME [MPZ1-C, peptide derived from Myelin Protein Zero, …]",572 µM,,
"human IRE1α luminal domain (hIRE1α LD, 24–443), wild type (domain or fragment, UniProt O75460 24-443, looked up, Inositol-requiring enzyme 1 alpha (IRE1α), human, luminal domain, residues 24-443, cloned from human cDNA into pET47b(+); also called hIRE1α LD WT; WT; source: E. coli BL21DE3* RIPL, purified (Ni-NTA, HiTRAP-Q, Superdex 200); not shown: His6, N-terminal, cleaved) STVTLPETLLFVSTLDGSLHAVSKRTGSIKWTLKEDPVLQVPTHVEEPAFLPDPNDGSLYTLGSKNNEGLTKLPFTIPELVQASPCRSSDGILYMGKKQDIWYVIDLLTGEKQQTLSSAFADSLCPSTSLLYLGRTEYTITMYDTKTRELRWNATYFDYAASLPEDDVDYKMSHFVSNGDGLVVTVDSESGDVLWIQNYASPVVAFYVWQREGLRKVMHINVAVETLRYLTFMSGEVGRITKWKYPFPKETEAKSKLTPTLYVGKYSTSLYASPSMVHEGVAVVPRGSTLPLLEGPQTDGVTIGDKGECVITPSTDVKFDPGLKSKNKLNYLRNYWLLIGHHETPLSASTKMLERFPNNLPKHRENVIPADSEKKSFEEVINLVDQTSENAPTTVSRDVEEKPAHAPARPEAPVDSMLKD",,2.14,
"human IRE1α luminal domain (hIRE1α LD, 24–443) E102R (domain or fragment, UniProt O75460 24-443, looked up, Inositol-requiring enzyme 1 alpha (IRE1α), human, luminal domain, residues 24-443, with E102R introduced by overlap extension PCR; source: E. coli BL21DE3* RIPL, purified (Ni-NTA, HiTRAP-Q, Superdex 200); not shown: His6, N-terminal, cleaved) STVTLPETLLFVSTLDGSLHAVSKRTGSIKWTLKEDPVLQVPTHVEEPAFLPDPNDGSLYTLGSKNNEGLTKLPFTIPRLVQASPCRSSDGILYMGKKQDIWYVIDLLTGEKQQTLSSAFADSLCPSTSLLYLGRTEYTITMYDTKTRELRWNATYFDYAASLPEDDVDYKMSHFVSNGDGLVVTVDSESGDVLWIQNYASPVVAFYVWQREGLRKVMHINVAVETLRYLTFMSGEVGRITKWKYPFPKETEAKSKLTPTLYVGKYSTSLYASPSMVHEGVAVVPRGSTLPLLEGPQTDGVTIGDKGECVITPSTDVKFDPGLKSKNKLNYLRNYWLLIGHHETPLSASTKMLERFPNNLPKHRENVIPADSEKKSFEEVINLVDQTSENAPTTVSRDVEEKPAHAPARPEAPVDSMLKD",,6.35,
"human IRE1α luminal domain (hIRE1α LD, 24–443) Y161R (domain or fragment, UniProt O75460 24-443, looked up, Inositol-requiring enzyme 1 alpha (IRE1α), human, luminal domain, residues 24-443, with Y161R introduced by overlap extension PCR; source: E. coli BL21DE3* RIPL, purified (Ni-NTA, HiTRAP-Q, Superdex 200); not shown: His6, N-terminal, cleaved) STVTLPETLLFVSTLDGSLHAVSKRTGSIKWTLKEDPVLQVPTHVEEPAFLPDPNDGSLYTLGSKNNEGLTKLPFTIPELVQASPCRSSDGILYMGKKQDIWYVIDLLTGEKQQTLSSAFADSLCPSTSLLYLGRTERTITMYDTKTRELRWNATYFDYAASLPEDDVDYKMSHFVSNGDGLVVTVDSESGDVLWIQNYASPVVAFYVWQREGLRKVMHINVAVETLRYLTFMSGEVGRITKWKYPFPKETEAKSKLTPTLYVGKYSTSLYASPSMVHEGVAVVPRGSTLPLLEGPQTDGVTIGDKGECVITPSTDVKFDPGLKSKNKLNYLRNYWLLIGHHETPLSASTKMLERFPNNLPKHRENVIPADSEKKSFEEVINLVDQTSENAPTTVSRDVEEKPAHAPARPEAPVDSMLKD",,5.4,
